Test results taken from patent US10457637B2, “Benzenesulfonamide derivatives as inverse agonists of retinoid-related orphan receptor gamma (RORγ(T))” (GALDERMA RESEARCH & DEVELOPMENT, priority 2014, dated 2019).

Target: ROR gamma ligand-binding domain (hRORg) (Homo sapiens (Human), UniProt P51449)
Assay: GAL4-RORγ transactivation (luciferase reporter, HG5LN HeLa line)
Format: cell-based
Conditions: 18 hours incubation
Description: GAL4-RORγ Transactivation
The RORγ transactivation model was developed from the line HG5LN, which is a HeLa line that stably expresses a luciferase reporter gene controlled by a pentamer of the GAL4 recognition domain of yeast and of a β-globin promoter. The HG5LN line was stably transfected by the DNA-binding domain (DBD) of GAL4 fused to the ROR gamma ligand-binding domain (LBD). Molecules that inhibit the ROR gamma constitutive activity reduce the luciferase expression, thus leading to a reduction in the emitted luminescence.
The cells are seeded in 384-well plates (5000 cells in 45 μL/well of culture medium containing 10% fetal calf serum) and incubated for 4 hours at 37° C., 5% CO2. 5 μL of the test molecules (compounds described in the tables described above) are then added to each well and the plates are incubated for 18 hours at a temperature of 37° C. under 5% of CO2. 20 μL of luciferase substrate (Promega) are added to each well and the luminescence emitted is read by a microplate reader.
The luminescence units (“RLU”) are normalized by positive controls (“POS” containing a saturated concentration of benzenesulfonamide, N-(2,2,2-trifluoroethyl)-N-[4-[2,2,2-trifluoro-1-hydroxy-1-(trifluoromethyl)ethyl]phenyl]) and negative controls (“NEG” containing DMSO): % inhibition=((RLU−NEG)*100)/(POS−NEG). The IC50 values are calculated from a 4-parameter logistic model using the XLFit software (IDBS).

Sequence of ROR gamma ligand-binding domain (hRORg) (P51449 269-508): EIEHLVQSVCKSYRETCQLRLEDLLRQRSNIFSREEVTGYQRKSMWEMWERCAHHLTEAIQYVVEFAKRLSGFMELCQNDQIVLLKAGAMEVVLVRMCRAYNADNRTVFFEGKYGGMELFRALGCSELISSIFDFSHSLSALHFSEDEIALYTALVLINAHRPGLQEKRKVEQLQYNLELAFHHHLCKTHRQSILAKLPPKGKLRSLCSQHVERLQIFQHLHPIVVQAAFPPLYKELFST

SMILES: CCc1ccc(N(CC(C)C)S(=O)(=O)c2ccc3c(c2)N(CC2CCOCC2)C(=O)C[S+]3[O-])cc1 (stereo not shown) [compound 4, 1,3-dioxo-4-(tetrahydropyran-4-ylmethyl)-1,2,3,4-tetrahydro-1λ^4-benzo[1,4]thiazine-6-sulfonic acid (4-ethylphenyl)isobutylamide]
- IC50: > 1000 nM

SMILES: CCc1ccc(N(CC(C)C)S(=O)(=O)c2ccc3c(c2)N(CC2CCOCC2)CCS3)cc1 [compound 6, 4-(tetrahydropyran-4-ylmethyl)-3,4-dihydro-2H-benzo[1,4]thiazine-6-sulfonic acid (4-ethylphenyl)isobutylamide]
- IC50: > 1000 nM

SMILES: CCc1ccc(N(CC(C)C)S(=O)(=O)c2ccc3c(c2)NCCS3)cc1 [compound 9, 3,4-dihydro-2H-benzo[1,4]thiazine-6-sulfonic acid (4-ethylphenyl)isobutylamide]
- IC50: > 1000 nM

SMILES: CCc1ccc(N(CC(C)C)S(=O)(=O)c2ccc3c(c2)NC(=O)CS3)cc1 [compound 10, 3-oxo-3,4-dihydro-2H-benzo[1,4]thiazine-6-sulfonic acid (4-ethylphenyl)isobutylamide]
- IC50: > 1000 nM

SMILES: CCc1ccc(N(CC(C)C)S(=O)(=O)c2ccc([S+]([O-])CC3CCOCC3)c(C(=O)OC)c2)cc1 (stereo not shown) [compound 16, methyl 5-[(4-ethylphenyl)isobutylsulfamoyl]-2-(tetrahydropyran-4-ylmethanesulfinyl)benzoate]
- IC50: > 1000 nM

SMILES: CCc1ccc(N(CC(C)C)S(=O)(=O)c2ccc(SCC3CCOCC3)c(C(=O)OC)c2)cc1 [compound 17, methyl 5-[(4-ethylphenyl)isobutylsulfamoyl]-2-(tetrahydropyran-4-ylmethylsulfanyl)benzoate]
- IC50: > 1000 nM

SMILES: CCc1ccc(N(CC(C)C)S(=O)(=O)c2ccc(OCC3CCOCC3)c([S+]([O-])CC)c2)cc1 (stereo not shown) [compound 22, ethanesulfinyl-N-(4-ethylphenyl)-N-isobutyl-4-(tetrahydropyran-4-ylmethoxy)benzenesulfonamide]
- IC50: 100 to 1000 nM

SMILES: CCc1ccc(N(CC(C)C)S(=O)(=O)c2ccc(OCC3CCOCC3)c(SC)c2)cc1 [compound 25, N-(4-ethylphenyl)-N-isobutyl-3-methylsulfanyl-4-(tetrahydropyran-4-ylmethoxy)benzenesulfonamide]
- IC50: 100 to 1000 nM

SMILES: CCc1ccc(N(CC(C)C)S(=O)(=O)c2ccc(S(=N)(=O)CC3CCOCC3)cc2)cc1 (stereo not shown) [compound 28, N-(4-ethylphenyl)-N-isobutyl-4-(tetrahydropyran-4-ylmethanesulfoximimyl)benzenesulfonamide]
- IC50: > 1000 nM

SMILES: CCc1ccc(N(CC(C)C)S(=O)(=O)c2ccc(OCC3C4COCC43)c(S(C)(=N)=O)c2)cc1 (stereo not shown) [compound 31, 4-((3-oxabicyclo[3.1.0]hexan-6-yl)methoxy)-N-(4-ethylphenyl)-N-isobutyl-3-(S-methylsulfonimidoyl)benzenesulfonamide]
- IC50: < 100 nM

SMILES: CCc1ccc(N(CC(C)C)S(=O)(=O)c2ccc(OCC3(F)COC3)c(S(C)(=N)=O)c2)cc1 (stereo not shown) [compound 32, N-(4-eethylphenyl)-4-((3-fluorooxetan-3-yl)methoxy)-N-isobutyl-3-(S-methylsulfonimidoyl)benzenesulfonamide]
- IC50: > 1000 nM

SMILES: CCc1ccc(N(CC(C)C)S(=O)(=O)c2ccc(OC3CCN(C(=O)OC(C)(C)C)CC3)c(S(C)(=N)=O)c2)cc1 (stereo not shown) [compound 33, tert-butyl 4-(4-(N-(4-ethylphenyl)-N-isobutylsulfamoyl)-2-(S-methylsulfonimidoyl)phenoxy)piperidine-1-carboxylate]
- IC50: > 1000 nM

SMILES: CCc1ccc(N(CC(C)C)S(=O)(=O)c2ccc(OCC3(C)COC3)c(S(C)(=N)=O)c2)cc1 (stereo not shown) [compound 34, N-(4-ethylphenyl)-N-isobutyl-4-((3-methyloxetan-3-yl)methoxy)-3-(S-methylsulfonimidoyl)benzenesulfonamide]
- IC50: > 1000 nM

SMILES: CCc1ccc(N(CC(C)C)S(=O)(=O)c2ccc(OCC3CCN(C(=O)OC(C)(C)C)CC3)c(S(C)(=N)=O)c2)cc1 (stereo not shown) [compound 36, tert-butyl 4-((4-(N-(4-ethylphenyl)-N-isobutylsulfamoyl)-2-(S-methylsulfonimidoyl)phenoxy)methyl)piperidine-1-carboxylate]
- IC50: > 1000 nM

SMILES: CCc1ccc(N(CC(C)C)S(=O)(=O)c2ccc(OCCc3ccno3)c(S(C)(=N)=O)c2)cc1 (stereo not shown) [compound 38, N-(4-ethylphenyl)-N-isobutyl-4-(2-(isoxazol-5-yl)ethoxy)-3-(S-methylsulfonimidoyl)benzenesulfonamide]
- IC50: > 1000 nM

SMILES: CCc1ccc(N(CC(C)C)S(=O)(=O)c2ccc(OCc3ccncc3)c(S(C)(=N)=O)c2)cc1 (stereo not shown) [compound 39, N-(4-ethylphenyl)-N-isobutyl-3-(S-methylsulfonimidoyl)-4-(pyridin-4-ylmethoxy)benzenesulfonamide]
- IC50: > 1000 nM

SMILES: CCc1ccc(N(CC(C)C)S(=O)(=O)c2ccc(OCC(O)CO)c(S(C)(=N)=O)c2)cc1 (stereo not shown) [compound 40, 4-(2,3-dihydroxypropoxy)-N-(4-ethylphenyl)-N-isobutyl-3-(S-methylsulfonimidoyl)benzenesulfonamide]
- IC50: > 1000 nM

SMILES: CCc1ccc(N(CC(C)C)S(=O)(=O)c2ccc(OCc3cc(C)nc(C)c3)c(S(C)(=N)=O)c2)cc1 (stereo not shown) [compound 43, 4-((2,6-dimethylpyridin-4-yl)methoxy)-N-(4-ethylphenyl)-N-isobutyl-3-(S-methylsulfonimidoyl)benzenesulfonamide]
- IC50: > 1000 nM

SMILES: CCc1ccc(N(CC(C)C)S(=O)(=O)c2ccc(OCc3ccc(F)cc3F)c(S(C)(=N)=O)c2)cc1 (stereo not shown) [compound 45, 4-((2,4-difluorobenzyl)oxy)-N-(4-ethylphenyl)-N-isobutyl-3-(S-methylsulfonimidoyl)benzenesulfonamide]
- IC50: > 1000 nM

SMILES: CCc1ccc(N(CC(C)C)S(=O)(=O)c2ccc(OCC3CCNCC3)c(S(C)(=N)=O)c2)cc1 (stereo not shown) [compound 49, N-(4-ethylphenyl)-N-isobutyl-3-(S-methylsulfonimidoyl)-4-(piperidin-4-ylmethoxy)benzenesulfonamide]
- IC50: > 1000 nM

SMILES: CCc1ccc(N(CC(C)C)S(=O)(=O)c2ccc(OCC3CCN(C(C)=O)CC3)c(S(C)(=N)=O)c2)cc1 (stereo not shown) [compound 50, 4-((1-acetylpiperidin-4-yl)methoxy)-N-(4-ethylphenyl)-N-isobutyl-3-(S-methylsulfonimidoyl)benzenesulfonamide]
- IC50: > 1000 nM

SMILES: CCc1ccc(N(CC(C)C)S(=O)(=O)c2ccc(OCC3CCN(S(C)(=O)=O)CC3)c(S(C)(=N)=O)c2)cc1 (stereo not shown) [compound 51]
- IC50: > 1000 nM

SMILES: CCc1ccc(N(CC(C)C)S(=O)(=O)c2ccc(NCC3COC3)c(S(C)(=N)=O)c2)cc1 (stereo not shown) [compound 54, N-(4-ethylphenyl)-N-isobutyl-3-(S-methylsulfonimidoyl)-4-((oxetan-3-ylmethyl)amino)benzenesulfonamide]
- IC50: 100 to 1000 nM

SMILES: CCc1ccc(N(CC(C)C)S(=O)(=O)c2ccc(NCC3CCS(=O)(=O)C3)c(S(C)(=N)=O)c2)cc1 (stereo not shown) [compound 56, 4-(((1,1-dioxidotetrahydrothiophen-3-yl)methyl)amino)-N-(4-ethylphenyl)-N-isobutyl-3-(S-methylsulfonimidoyl)benzenesulfonamide]
- IC50: 100 to 1000 nM

SMILES: CCc1ccc(N(CC(C)C)S(=O)(=O)c2ccc(NCC3CCS(=O)(=O)CC3)c(S(C)(=N)=O)c2)cc1 (stereo not shown) [compound 57, 4-(((1,1-dioxidotetrahydro-2H-thiopyran-4-yl)methyl)amino)-N-(4-ethylphenyl)-N-isobutyl-3-(S-methylsulfonimidoyl)benzenesulfonamide]
- IC50: > 1000 nM

SMILES: CCc1ccc(N(CC(C)C)S(=O)(=O)c2ccc(NCC3CCC(=O)NC3)c(S(C)(=N)=O)c2)cc1 (stereo not shown) [compound 58, N-(4-ethylphenyl)-N-isobutyl-3-(S-methylsulfonimidoyl)-4-(((6-oxopiperidin-3-yl)methyl)amino)benzenesulfonamide]
- IC50: > 1000 nM

SMILES: CCc1ccc(N(CC(C)C)S(=O)(=O)c2ccc(NCC3CNC(=O)C3)c(S(C)(=N)=O)c2)cc1 (stereo not shown) [compound 59, N-(4-ethylphenyl)-N-isobutyl-3-(S-methylsulfonimidoyl)-4-(((5-oxopyrrolidin-3-yl)methyl)amino)benzenesulfonamide]
- IC50: 100 to 1000 nM

SMILES: CCc1ccc(N(CC(C)C)S(=O)(=O)c2ccc(NCC3CCOCC3)c(S(N)(=O)=O)c2)cc1 [compound 67, 4-[(tetrahydropyran-4-ylmethyl)amino]benzene-1,3-disulfonic acid 3-amide 1-[(4-ethylphenyl)isobutylamide]]
- IC50: 100 to 1000 nM

SMILES: CCc1ccc(N(CC(C)C)S(=O)(=O)c2ccc3c(c2)[S+]([O-])CCN3CC2CCOCC2)cc1 (stereo not shown) [compound 71, 1-oxo-4-(tetrahydropyran-4-ylmethyl)-1,2,3,4-tetrahydro-1λ^4-benzo[1,4]thiazine-7-sulfonic acid (4-ethylphenyl)isobutylamide]
- IC50: > 1000 nM

SMILES: CCc1ccc(N(CC(C)C)S(=O)(=O)c2ccc3c(c2)sc(=O)n3CC2CCOCC2)cc1 [compound 72]
- IC50: 100 to 1000 nM

SMILES: CCc1ccc(N(CC(C)C)S(=O)(=O)c2ccc3c(c2)SC(C)(C)N3CC2CCOCC2)cc1 [compound 73, 2,2-dimethyl-3-(tetrahydropyran-4-ylmethyl)-2,3-dihydrobenzothiazole-6-sulfonic acid (4-ethylphenyl)isobutylamide]
- IC50: > 1000 nM
